# In US20220119354A1, “DIAMINO-SUBSTITUTED PYRIDINES AND PYRIMIDINES AS HERBICIDES” (FMC Corporation, priority 2019, published 2022):
# How the values were obtained:
# Assay type in all cases: in vivo
# [1] = test system: foxtail, giant (Setaria faberii); assay: Test A postemergence, giant foxtail; settings: Setaria faberi, post-emergence, 240 h, 0 to 100 scale, 0 no effect, 100 complete control, read-out: Plant response rating, Foxtail, Giant; for pest or weed control at 125 g/ha: 125 g ai/ha; for pest or weed control at 500 g/ha: 500 g ai/ha
# Method in brief: (§1)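 Seeds sown in loam–sand blend received a directed soil spray of test chemical in non-phytotoxic solvent with surfactant (preemergence); postemergence plants at 2–10 cm, one- to two-leaf stage, were sprayed with the same formulation. Injury rated visually versus untreated controls after ~10 d in greenhouse, 0–100 scale.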
# [2] = test system: barnyardgrass (Echinochloa crus-galli); assay: Test A preemergence, barnyardgrass; settings: 0 to 100 scale, 0 is no effect, 100 is complete control
# Method in brief: as §1
# [3] = test system: sedge, umbrella (small-flower umbrella sedge, Cyperus difformis); assay: Test B flooded paddy test, umbrella sedge; settings: Cyperus difformis, 360 h; Flood, 250 g ai/ha, applied to paddy water, 2-leaf stage, visual evaluation after 13 to 15 d; read-out: Plant response rating, Sedge, Umbrella (0 to 100 scale, 0 is no effect, 100 is complete control)
# Method in brief: (§2)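 Application was made into paddy water of pots flooded 3 cm deep at treatment, with seedlings at the 2-leaf stage. That flood level was kept throughout, and plants stayed under glass 13 to 15 d before visual assessment on a 0–100 control scale.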
# [4] = test system: galium (catchweed bedstraw, Galium aparine); assay: Test A postemergence, galium; settings: Galium, post-emergence, 240 h, 0 to 100 scale, 0 no effect, 100 complete control, read-out: Plant response rating, Galium; for pest or weed control at 125 g/ha: 125 g ai/ha; for pest or weed control at 500 g/ha: 500 g ai/ha
# Method in brief: as §1
# [5] = test system: barnyardgrass (Echinochloa crus-galli); assay: Test A postemergence, barnyardgrass; settings: Echinochloa crus-galli, post-emergence, 240 h, 0 to 100 scale, 0 no effect, 100 complete control, read-out: Plant response rating, Barnyardgrass; for pest or weed control at 125 g/ha: 125 g ai/ha; for pest or weed control at 500 g/ha: 500 g ai/ha
# Method in brief: as §1
# [6] = test system: wheat (Triticum aestivum); assay: Test A postemergence, wheat; settings: Triticum aestivum, post-emergence, 240 h, 0 to 100 scale, 0 no effect, 100 complete control, read-out: Plant response rating, Wheat; for plant injury at 125 g/ha: 125 g ai/ha; for plant injury at 500 g/ha: 500 g ai/ha
# Method in brief: as §1
# [7] = test system: foxtail, giant (Setaria faberii); assay: Test A preemergence, giant foxtail; settings: 0 to 100 scale, 0 is no effect, 100 is complete control
# Method in brief: as §1
# [8] = test system: pigweed (Amaranthus retroflexus); assay: Test A preemergence, pigweed; settings: 0 to 100 scale, 0 is no effect, 100 is complete control
# Method in brief: as §1
# kochia (Kochia scoparia) [9] = assay: Test A postemergence, kochia; settings: Bassia scoparia, post-emergence, 240 h, 0 to 100 scale, 0 no effect, 100 complete control, read-out: Plant response rating, Kochia; for pest or weed control at 125 g/ha: 125 g ai/ha; for pest or weed control at 500 g/ha: 500 g ai/ha
# Method in brief: as §1
# [10] = test system: ragweed (common ragweed, Ambrosia elatior); assay: Test A preemergence, ragweed; settings: 0 to 100 scale, 0 is no effect, 100 is complete control
# Method in brief: as §1
# [11] = test system: barnyardgrass (Echinochloa crus-galli); assay: Test B flooded paddy test, barnyardgrass; settings: Echinochloa crus-galli, 360 h; Flood, 250 g ai/ha, applied to paddy water, 2-leaf stage, visual evaluation after 13 to 15 d; read-out: Plant response rating, Barnyardgrass (0 to 100 scale, 0 is no effect, 100 is complete control)
# Method in brief: as §2
# [12] = test system: pigweed (Amaranthus retroflexus); assay: Test A postemergence, pigweed; settings: Amaranthus retroflexus, post-emergence, 240 h, 0 to 100 scale, 0 no effect, 100 complete control, read-out: Plant response rating, Pigweed; for pest or weed control at 125 g/ha: 125 g ai/ha; for pest or weed control at 500 g/ha: 500 g ai/ha
# Method in brief: as §1
# [13] = test system: blackgrass (Alopecurus myosuroides); assay: Test A postemergence, blackgrass; settings: Alopecurus myosuroides, post-emergence, 240 h, 0 to 100 scale, 0 no effect, 100 complete control, read-out: Plant response rating, Blackgrass; for pest or weed control at 125 g/ha: 125 g ai/ha; for pest or weed control at 500 g/ha: 500 g ai/ha
# Method in brief: as §1
# corn (Zea mays) = assay: Test A postemergence, corn; settings: Zea mays, post-emergence, 240 h, 0 to 100 scale, 0 no effect, 100 complete control; for Corn plant response rating (crop injury, 0 = no effect, 100 = complete kill) at 125 g/ha: 125 g ai/ha; for Corn plant response rating (crop injury, 0 = no effect, 100 = complete kill) at 500 g/ha: 500 g ai/ha
# Method in brief: as §1
# [14] = test system: ducksalad (Heteranthera limosa); assay: Test B flooded paddy test, ducksalad; settings: Heteranthera limosa, 360 h; Flood, 250 g ai/ha, applied to paddy water, 2-leaf stage, visual evaluation after 13 to 15 d; read-out: Plant response rating, Ducksalad (0 to 100 scale, 0 is no effect, 100 is complete control)
# Method in brief: as §2
# kochia (Kochia scoparia) [15] = assay: Test A preemergence, kochia; settings: 0 to 100 scale, 0 is no effect, 100 is complete control
# Method in brief: as §1
# rice (Oryza sativa) = assay: Test B flooded paddy test, rice; settings: Oryza sativa, 360 h; Flood, 250 g ai/ha, applied to paddy water, 2-leaf stage, visual evaluation after 13 to 15 d; read-out: Plant response rating, Rice (0 to 100 scale, 0 is no effect, 100 is complete control)
# Method in brief: as §2
Compound,pest or weed control at 125 g/ha [1] [%],pest or weed control at 500 g/ha [1] [%],Barnyardgrass plant response rating ([2]; 125 g ai/ha),Barnyardgrass plant response rating ([2]; 500 g ai/ha),pest or weed control at 250 g/ha [3] [%],pest or weed control at 125 g/ha [4] [%],pest or weed control at 500 g/ha [4] [%],pest or weed control at 125 g/ha [5] [%],pest or weed control at 500 g/ha [5] [%],plant injury at 125 g/ha [6] [%],plant injury at 500 g/ha [6] [%],"Foxtail, Giant plant response rating ([7]; 125 g ai/ha)","Foxtail, Giant plant response rating ([7]; 500 g ai/ha)",Pigweed plant response rating ([8]; 125 g ai/ha),Pigweed plant response rating ([8]; 500 g ai/ha),pest or weed control at 125 g/ha (kochia (Kochia scoparia) [9]) [%],pest or weed control at 500 g/ha (kochia (Kochia scoparia) [9]) [%],Ragweed plant response rating ([10]; 125 g ai/ha),Ragweed plant response rating ([10]; 500 g ai/ha),pest or weed control at 250 g/ha [11] [%],further results
"C[C@@H](Nc1ncc(C(F)(F)F)c(N)n1)c1cc2c(F)cccc2s1 [Compound 61, N2-[(1R)-1-(4-fluorobenzo[b]thien-2-yl)ethyl]-5-(trifluoromethyl)-2,4-pyrimidinediamine]",90,90,80,90,90,70,100,80,100,20,30,100,100,100,100,80,90,90,100,40,"pest or weed control at 125 g/ha [12]: 100%; pest or weed control at 500 g/ha [12]: 100%; pest or weed control at 125 g/ha [13]: 80%; pest or weed control at 500 g/ha [13]: 70%; Corn plant response rating (crop injury, 0 = no effect, 100 = complete kill) at 125 g/ha (corn (Zea mays)): 10%; Corn plant response rating (crop injury, 0 = no effect, 100 = complete kill) at 500 g/ha (corn (Zea mays)): 60%; pest or weed control at 250 g/ha [14]: 50%; Kochia plant response rating (kochia (Kochia scoparia) [15]; 125 g ai/ha): 90; Kochia plant response rating (kochia (Kochia scoparia) [15]; 500 g ai/ha): 90; plant injury at 250 g/ha (rice (Oryza sativa)): 0%"
"C[C@@H](Nc1ncc(C(F)(F)F)c(N)n1)c1cc2cccc(F)c2o1 [Compound 71, N2-[(1R)-1-(7-fluoro-2-benzofuranyl)ethyl]-5-(trifluoromethyl)-2,4-pyrimidinediamine]",60,90,70,100,0,80,90,30,100,0,0,90,100,100,100,90,90,100,100,0,"pest or weed control at 125 g/ha [12]: 100%; pest or weed control at 500 g/ha [12]: 100%; pest or weed control at 125 g/ha [13]: 0%; pest or weed control at 500 g/ha [13]: 50%; Corn plant response rating (crop injury, 0 = no effect, 100 = complete kill) at 125 g/ha (corn (Zea mays)): 0%; Corn plant response rating (crop injury, 0 = no effect, 100 = complete kill) at 500 g/ha (corn (Zea mays)): 40%; pest or weed control at 250 g/ha [14]: 0%; Kochia plant response rating (kochia (Kochia scoparia) [15]; 125 g ai/ha): 90; Kochia plant response rating (kochia (Kochia scoparia) [15]; 500 g ai/ha): 100; plant injury at 250 g/ha (rice (Oryza sativa)): 0%"
"C[C@@H](Nc1ncc(C(F)(F)F)c(N)n1)c1cc2c(F)cccc2o1 [Compound 73, N2-[(1R)-1-(4-fluoro-2-benzofuranyl)ethyl]-5-(trifluoromethyl)-2,4-pyrimidinediamine]",70,100,90,100,90,90,90,60,100,0,0,100,100,100,100,90,100,100,100,65,"pest or weed control at 125 g/ha [12]: 100%; pest or weed control at 500 g/ha [12]: 100%; pest or weed control at 125 g/ha [13]: 50%; pest or weed control at 500 g/ha [13]: 80%; Corn plant response rating (crop injury, 0 = no effect, 100 = complete kill) at 125 g/ha (corn (Zea mays)): 30%; Corn plant response rating (crop injury, 0 = no effect, 100 = complete kill) at 500 g/ha (corn (Zea mays)): 40%; pest or weed control at 250 g/ha [14]: 98%; Kochia plant response rating (kochia (Kochia scoparia) [15]; 125 g ai/ha): 100; Kochia plant response rating (kochia (Kochia scoparia) [15]; 500 g ai/ha): 100; plant injury at 250 g/ha (rice (Oryza sativa)): 10%"
